# Assay results: US20230339851A1, “CXCR6 SULFONAMIDE COMPOUNDS” (CHEMOCENTRYX, INC., priority 2022, published 2023)
# pIC50: −log10 of the molar value.
# Biological target: T1, human CXCR6 (Homo sapiens, UniProt O00574)
# T1 construct: expressed in transfected cells
# Experiment: Radioligand Binding Assay (125I-CXCL16 displacement)
# Settings: L1.2 cells stably transfected with human CXCR6 cDNA, 0.1 nM 125I-CXCL16, 4° C., three-hour incubation; read-out: Potency (IC50)
# Summary of the method: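 L1.2 cells stably expressing human CXCR6 incubated 3 h at 4 °C in HBSS/0.1% BSA with 0.1 nM 125I-CXCL16 and graded compound concentrations. Bound radioactivity collected by filtration and counted; IC50 from 3-parameter nonlinear regression.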
# T1 sequence (O00574 whole entry): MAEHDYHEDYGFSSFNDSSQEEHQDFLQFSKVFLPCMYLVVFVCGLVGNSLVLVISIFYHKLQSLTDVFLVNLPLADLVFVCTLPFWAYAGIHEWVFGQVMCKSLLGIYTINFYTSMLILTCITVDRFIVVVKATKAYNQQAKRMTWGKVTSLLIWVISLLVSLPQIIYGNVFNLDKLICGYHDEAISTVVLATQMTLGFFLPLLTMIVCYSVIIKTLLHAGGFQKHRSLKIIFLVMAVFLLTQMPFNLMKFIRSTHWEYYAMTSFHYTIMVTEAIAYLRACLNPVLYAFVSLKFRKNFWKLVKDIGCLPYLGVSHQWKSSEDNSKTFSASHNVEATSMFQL
row,pIC50,Structure (SMILES)
1,≥ 6.70,Cc1cc(NC(=O)c2ccns2)ccc1S(=O)(=O)Nc1cccc(C(F)(F)F)c1 [Example 1.346]
2,4.70 to 5.70,CCOc1cc(NC(C)=O)ccc1S(=O)(=O)Nc1cccc(C(F)(F)F)c1 [Example 1.212]
3,≥ 6.70,COc1cc(NC(=O)c2ccnn2C)ccc1S(=O)(=O)Nc1ccc(C)c(C(F)(F)F)c1 [Example 1.552]
4,≥ 6.70,COc1cc(NC(=O)C(O)C(C)C)ccc1S(=O)(=O)Nc1cccc(C(F)(F)F)c1 (stereo not drawn) [Example 1.535]
5,≥ 6.70,Cc1cc(NC(=O)[C@@H](N)c2ccccc2)ccc1S(=O)(=O)Nc1cccc(OC(F)(F)F)c1 [Example 1.450]
6,4.70 to 5.70,CCOc1cc(NC(=O)[C@H]2CCCC[C@H]2OC)ccc1S(=O)(=O)Nc1cccc(OC(F)(F)F)c1 [Example 1.449]
7,5.70 to 6.12,COc1cc(NC(=O)c2ccn[nH]2)ccc1S(=O)(=O)Nc1cccc(C(F)(F)F)c1 [Example 1.055]
8,≥ 6.70,CCOc1cc(NC(=O)[C@H]2CC=CC[C@@H]2CO)ccc1S(=O)(=O)Nc1cccc(OC(F)(F)F)c1 [Example 1.453]
9,≥ 6.70,CCOc1cc(NC(=O)[C@H]2CC(C)=C(C)C[C@@H]2C(=O)O)ccc1S(=O)(=O)Nc1cccc(OC(F)(F)F)c1 [Example 1.096]
10,4.70 to 5.70,COc1cc(NC(=O)[C@@H]2CCC[C@H]2NC(=O)OC(C)(C)C)ccc1S(=O)(=O)Nc1cccc(C(F)(F)F)c1 [Example 1.426]
11,≥ 6.70,CCOc1cc(NC(=O)[C@@H](O)C(C)C)ccc1S(=O)(=O)Nc1ccc(C)c(OC(F)(F)F)c1 [Example 1.205]
12,≥ 6.70,CCOc1cc(NC(=O)C(O)C2CCC2)ccc1S(=O)(=O)Nc1cccc(OC(F)(F)F)c1 (stereo not drawn) [Example 1.222]
13,4.70 to 5.70,COc1cc(NC(=O)[C@H]2CCCNC2)ccc1S(=O)(=O)Nc1cccc(C(F)(F)F)c1 [Example 1.323]
14,≥ 6.70,CCOc1cc(NC(=O)C(C(=O)O)C2CCC2)ccc1S(=O)(=O)Nc1cccc(OC(F)(F)F)c1 (stereo not drawn) [Example 1.218]
15,≥ 6.70,CCc1cc(NC(=O)[C@@H](CO)c2ccccc2)ccc1S(=O)(=O)Nc1cccc(OC(F)(F)F)c1 [Example 1.163]
16,≥ 6.70,CCOc1cc(NC(=O)C(CNC(C)=O)c2ccccc2)ccc1S(=O)(=O)Nc1cccc(OC(F)(F)F)c1 (stereo not drawn) [Example 1.386]
17,4.70 to 5.70,CCOc1cc(NC(=O)[C@@H](CO)c2ccccc2)ccc1S(=O)(=O)Nc1cccc(OC(F)(F)F)c1C [Example 1.274]
18,4.70 to 5.70,CCCCOc1cc(NC(=O)c2ccnn2C)ccc1S(=O)(=O)Nc1cccc(C(F)(F)F)c1 [Example 1.156]
19,6.12 to 6.70,CCOc1cc(NC(=O)C(C)C(O)C2CC3C=CC2C3)ccc1S(=O)(=O)Nc1cccc(OC(F)(F)F)c1 (stereo not drawn) [Example 1.517]
20,≥ 6.70,COc1cc(NC(=O)c2ccnn2C)ccc1S(=O)(=O)Nc1ccc(Cl)c(OC(F)(F)F)c1 [Example 1.469]
21,6.12 to 6.70,Cc1cc(NC(=O)c2ccccc2)ccc1S(=O)(=O)Nc1cccc(C(F)(F)F)c1 [Example 1.447]

row,pIC50,Structure (SMILES)
1,≥ 6.70,CCc1cc(NC(=O)[C@@H](O)C(C)C)ccc1S(=O)(=O)Nc1cccc(OC(F)(F)F)c1 [Example 1.059]
2,≥ 6.70,CCOc1cc(NC(=O)[C@H](O)C2CCCC2)ccc1S(=O)(=O)Nc1cccc(OC(F)(F)F)c1 [Example 1.281]
3,≥ 6.70,CCOc1cc(NC(=O)C(CC2CC=CCC2)C(=O)O)ccc1S(=O)(=O)Nc1cccc(OC(F)(F)F)c1 (stereo not drawn) [Example 1.229]
4,≥ 6.70,CCOc1cc(NC(=O)[C@@H](CO)C(C)C)ccc1S(=O)(=O)Nc1ccc(Cl)c(C(F)(F)F)c1 [Example 1.523]
5,≥ 6.70,CCOc1cc(NC(=O)C(C)(O)c2ccccc2)ccc1S(=O)(=O)Nc1cccc(OC(F)(F)F)c1 (stereo not drawn) [Example 1.095]
6,6.12 to 6.70,COc1cc(NC(=O)C2CC3C=CC2O3)ccc1S(=O)(=O)Nc1cccc(C(F)(F)F)c1 (stereo not drawn) [Example 1.565]
7,≥ 6.70,CCOc1cc(NC(=O)[C@@H](CO)C2CC2)ccc1S(=O)(=O)Nc1cccc(C(F)(F)F)c1 [Example 1.494]
8,≥ 6.70,Cc1cc(NC(=O)[C@@H](CO)C(C)C)ccc1S(=O)(=O)Nc1cccc(OC(F)(F)F)c1 [Example 1.174]
9,5.70 to 6.12,Cc1cc(NC(=O)c2ccon2)ccc1S(=O)(=O)Nc1cccc(C(F)(F)F)c1 [Example 1.268]
10,4.70 to 5.70,COc1cc(NC(C)=O)cc(F)c1S(=O)(=O)Nc1cccc(OC(F)(F)F)c1 [Example 1.537]
11,≥ 6.70,CCOc1cc(NC(=O)C(CCO)CC(C)C)ccc1S(=O)(=O)Nc1cccc(OC(F)(F)F)c1 (stereo not drawn) [Example 1.383]
12,4.70 to 5.70,COc1cc(NC(=O)CC(C)(C)O)ccc1S(=O)(=O)Nc1cccc(C(F)(F)F)c1 [Example 1.122]
13,4.70 to 5.70,Cc1cc(NC(=O)[C@@H]2CCCN2C)ccc1S(=O)(=O)Nc1cccc(C(F)(F)F)c1 [Example 1.422]
14,6.12 to 6.70,CCOc1cc(NC(=O)[C@@H](O)C(C)C)ccc1S(=O)(=O)Nc1ccc(Cl)c(OC)c1 [Example 1.154]
15,≥ 6.70,CCOc1cc(NC(=O)C(NC)c2ccccc2)ccc1S(=O)(=O)Nc1cccc(OC(F)(F)F)c1 (stereo not drawn) [Example 1.408]
16,6.12 to 6.70,CCOc1cc(NC(=O)[C@@H](O)C(C)C)ccc1S(=O)(=O)Nc1cccc(OC(F)(F)F)c1F [Example 1.320]
17,5.70 to 6.12,CCOc1cc(NC(=O)C(O)c2cccnc2)ccc1S(=O)(=O)Nc1cccc(OC(F)(F)F)c1 (stereo not drawn) [Example 1.493]
18,6.12 to 6.70,CCOc1cc(NC(=O)c2cccc(=O)n2C)ccc1S(=O)(=O)Nc1cccc(OC(F)(F)F)c1 [Example 1.037]
19,≥ 6.70,CCOc1cc(NC(=O)[C@@H](CO)C(C)C)ccc1S(=O)(=O)Nc1cccc(OC(F)(F)F)c1 [Example 1.022]
20,≥ 6.70,CCOc1cc(NC(=O)C2c3ccccc3CC2O)ccc1S(=O)(=O)Nc1cccc(OC(F)(F)F)c1 (stereo not drawn) [Example 1.257]
21,4.70 to 5.70,CCCCOc1cc(NC(=O)c2ccns2)ccc1S(=O)(=O)Nc1cccc(C(F)(F)F)c1 [Example 1.124]

row,pIC50,Structure (SMILES)
1,5.70 to 6.12,COc1cc(NC(=O)CC2CCCCC2)ccc1S(=O)(=O)Nc1cccc(C(F)(F)F)c1 [Example 1.343]
2,6.12 to 6.70,CCOc1cc(NC(=O)CC(C)(O)C(F)(F)F)ccc1S(=O)(=O)Nc1cccc(OC(F)(F)F)c1 (stereo not drawn) [Example 1.512]
3,≥ 6.70,COc1cc(NC(=O)[C@@H](CO)C(C)C)ccc1S(=O)(=O)Nc1cccc(C(F)(F)F)c1 [Example 1.460]
4,≥ 6.70,CCOc1cc(NC(=O)c2ccc(N)nc2)ccc1S(=O)(=O)Nc1cccc(OC(F)(F)F)c1 [Example 1.326]
5,≥ 6.70,CCOc1cc(NC(=O)[C@@H](N)C(C)O)ccc1S(=O)(=O)Nc1cccc(OC(F)(F)F)c1 (stereo partly drawn) [Example 1.032]
6,6.12 to 6.70,Cc1cc(NC(=O)c2cccc(F)c2)ccc1S(=O)(=O)Nc1cccc(C(F)(F)F)c1 [Example 1.380]
7,4.70 to 5.70,CCOc1cc(NC(=O)[C@H]2CC[C@@](C)(O)CC2)ccc1S(=O)(=O)Nc1cccc(OC(F)(F)F)c1 [Example 1.043]
8,≥ 6.70,CCOc1cc(NC(=O)c2ccnc(N)c2)ccc1S(=O)(=O)Nc1cccc(OC(F)(F)F)c1 [Example 1.117]
9,≥ 6.70,COc1cc(NC(=O)[C@@H](O)C(C)C)ccc1S(=O)(=O)Nc1cccc(OC(F)(F)F)c1 [Example 1.438]
10,5.70 to 6.12,CCOc1cc(NC(=O)[C@@H](O)C(C)C)ccc1S(=O)(=O)Nc1cccc(Cl)c1C [Example 1.570]
11,4.70 to 5.70,CCOc1cc(NC(=O)C2CCN(C)CC2)ccc1S(=O)(=O)Nc1cccc(OC(F)(F)F)c1 [Example 1.192]
12,≥ 6.70,CCOc1cc(NC(=O)[C@@H](O)C(C)C)ccc1S(=O)(=O)Nc1ccc(C)c(C(F)(F)F)c1 [Example 1.363]
13,6.12 to 6.70,Cc1cc(NC(=O)c2ccoc2C)ccc1S(=O)(=O)Nc1cccc(C(F)(F)F)c1 [Example 1.019]
14,6.12 to 6.70,CCOc1cc(NC(=O)[C@H]2CCC=C[C@H]2O)ccc1S(=O)(=O)Nc1cccc(OC(F)(F)F)c1 [Example 1.226]
15,≥ 6.70,CCOc1cc(NC(=O)C(C(=O)O)C2CCOCC2)ccc1S(=O)(=O)Nc1cccc(OC(F)(F)F)c1 (stereo not drawn) [Example 1.377]
16,4.70 to 5.70,COc1cc(NC(=O)[C@@H]2CCC[C@H]2N)ccc1S(=O)(=O)Nc1cccc(C(F)(F)F)c1 [Example 1.392]
17,5.70 to 6.12,CCOc1cc(NC(=O)[C@H]2CCCC[C@H]2C(=O)O)ccc1S(=O)(=O)Nc1ccc(C)c(OC(F)(F)F)c1 (racemic) [Example 1.314]
18,6.12 to 6.70,CCOc1cc(NC(=O)[C@@H]2CCCCC[C@H]2O)ccc1S(=O)(=O)Nc1cccc(OC(F)(F)F)c1 [Example 1.562]
19,4.70 to 5.70,CCOc1cc(NC(=O)[C@H]2CC=CC[C@@H]2C(=O)O)ccc1S(=O)(=O)Nc1ccc(C)c(OC(F)(F)F)c1 (racemic) [Example 1.167]
20,≥ 6.70,CCOc1cc(NC(=O)[C@@H](O)C(C)C)ccc1S(=O)(=O)Nc1ccc(F)c(C(F)(F)F)c1 [Example 1.084]
21,6.12 to 6.70,CCOc1cc(NC(=O)[C@H]2CCOC[C@@H]2O)ccc1S(=O)(=O)Nc1cccc(OC(F)(F)F)c1 [Example 1.410]
